Data published in the supplement of paper PMC9663587.

Assays:
Cabozantinib = compound: COc1cc2nccc(Oc3ccc(NC(=O)C4(C(=O)Nc5ccc(F)cc5)CC4)cc3)c2cc1OC [Cabozantinib]
BSJ-03-123 = compound: CC(=O)c1c(C)c2cnc(Nc3ccc(N4CCN(CCOCCOCCOCCNC(=O)COc5cccc6c5C(=O)N(C5CCC(=O)NC5=O)C6=O)CC4)cn3)nc2n(C2CCCC2)c1=O [BSJ-03-123]
[1] = compound: CCc1cnn2c(NCc3ccc[n+]([O-])c3)cc(N3CCCC[C@H]3CCO)nc12
Vorinostat = compound: O=C(CCCCCCC(=O)Nc1ccccc1)NO [Vorinostat]
Buparlisib/NVP-BKM120 = compound: Nc1cc(C(F)(F)F)c(-c2cc(N3CCOCC3)nc(N3CCOCC3)n2)cn1 [Buparlisib/NVP-BKM120]
Paclitaxel = compound: CC(=O)O[C@H]1C(=O)[C@@]2(C)[C@H]([C@H](OC(=O)c3ccccc3)[C@]3(O)C[C@H](OC(=O)[C@H](O)[C@@H](NC(=O)c4ccccc4)c4ccccc4)C(C)=C1C3(C)C)[C@]1(OC(C)=O)CO[C@@H]1C[C@@H]2O [Paclitaxel]
SHP099 = compound: CC1(CCN(CC1)C2=CN=C(C(=N2)N)C3=C(C(=CC=C3)Cl)Cl)N [SHP099]
AZD5363 = compound: NC1(C(=O)N[C@@H](CCO)c2ccc(Cl)cc2)CCN(c2nc[nH]c3nccc2-3)CC1 [AZD5363]
[2] = compound: CCN1CCN(Cc2ccc(Nc3ncc(F)c(-c4cc(F)c5nc(C)n(C(C)C)c5c4)n3)nc2)CC1
[3] = compound: CCc1cnn2c(NCc3ccc[n+]([O-])c3)cc(N3CCCC[C@H]3CCO)nc12; experiment: GR value, 72 h; higher = faster growth (1 = untreated, <0 = killing);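 also: breast cancer and non-malignant breast epithelial lines, nine half-log doses, viable cells counted by Hoechst and LIVE/DEAD dye imaging versus time-zero plates and DMSO controls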
LEE011/Ribociclib = compound: CN(C)C(=O)c1cc2cnc(Nc3ccc(N4CCNCC4)cn3)nc2n1C1CCCC1 [LEE011/Ribociclib]; experiment: as above
THZ1 = compound: CN(C)C/C=C/C(=O)Nc1ccc(C(=O)Nc2cccc(Nc3ncc(Cl)c(-c4c[nH]c5ccccc45)n3)c2)cc1 [THZ1]; experiment: as above
THZ531 = compound: CN(C)C/C=C/C(=O)Nc1ccc(C(=O)N2CCC[C@@H](Nc3ncc(Cl)c(-c4c[nH]c5ccccc45)n3)C2)cc1 [THZ531]; experiment: as above
Flavopiridol = compound: CN1CC[C@H](c2c(O)cc(O)c3c(=O)cc(-c4ccccc4Cl)oc23)[C@H](O)C1 [Flavopiridol]; experiment: as above
[4] = compound: CC(=O)c1c(C)c2cnc(Nc3ccc(N4CCNCC4)cn3)nc2n(C2CCCC2)c1=O; experiment: as above
[5] = compound: CCN1CCN(Cc2ccc(Nc3ncc(F)c(-c4cc(F)c5nc(C)n(C(C)C)c5c4)n3)nc2)CC1; experiment: as above
YKL-5-124 = compound: C=CC(=O)Nc1ccc(C(=O)Nc2[nH]nc3c2CN(C(=O)N[C@H](CN(C)C)c2ccccc2)C3(C)C)cc1 [YKL-5-124]; experiment: as above
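For GR50, 72 h in this document: breast cancer and non-malignant breast epithelial cell lines, Deep Dye Drop or Dye Drop imaging, nine half-log doses, GR normalized to time-zero plates and DMSO-only controls.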

## MDAMB415
Cabozantinib
  GR50, 72 h: 6.41 µM
BSJ-03-123
  GR50, 72 h: 1.36 µM
[1]
  GR50, 72 h: 0.0203 µM
Vorinostat
  GR50, 72 h: 2.92 µM
Buparlisib/NVP-BKM120
  GR50, 72 h: 1.02 µM
Paclitaxel
  GR50, 72 h: 0.000687 µM
SHP099
  GR50, 72 h: > 10 µM
AZD5363
  GR50, 72 h: 0.0101 µM
[2]
  GR50, 72 h: 0.00897 µM
[3]; 0.0001 µM
  GR value: 1.06 GR
[3]; 0.0003162 µM
  GR value: 1.04 GR
[3]; 0.001 µM
  GR value: 1.18 GR
[3]; 0.003162 µM
  GR value: 1.2 GR
[3]; 0.01 µM
  GR value: 0.935 GR
[3]; 0.03162 µM
  GR value: -0.112 GR
[3]; 0.1 µM
  GR value: -0.482 GR
[3]; 0.3162 µM
  GR value: -0.48 GR
[3]; 1 µM
  GR value: -0.484 GR
LEE011/Ribociclib; 0.001 µM
  GR value: 0.708 GR
LEE011/Ribociclib; 0.003162 µM
  GR value: 0.659 GR
LEE011/Ribociclib; 0.01 µM
  GR value: 0.504 GR
LEE011/Ribociclib; 0.03162 µM
  GR value: 0.395 GR
LEE011/Ribociclib; 0.1 µM
  GR value: 0.287 GR
LEE011/Ribociclib; 0.3162 µM
  GR value: 0.248 GR
LEE011/Ribociclib; 1 µM
  GR value: 0.264 GR
LEE011/Ribociclib; 3.162 µM
  GR value: 0.278 GR
LEE011/Ribociclib; 10 µM
  GR value: 0.222 GR
THZ1; 0.0001 µM
  GR value: 0.979 GR
THZ1; 0.0003162 µM
  GR value: 0.999 GR
THZ1; 0.001 µM
  GR value: 0.995 GR
THZ1; 0.003162 µM
  GR value: 0.857 GR
THZ1; 0.01 µM
  GR value: 0.797 GR
THZ1; 0.03162 µM
  GR value: 0.524 GR
THZ1; 0.1 µM
  GR value: 0.216 GR
THZ1; 0.3162 µM
  GR value: -0.218 GR
THZ1; 1 µM
  GR value: -0.408 GR
THZ531; 0.0001 µM
  GR value: 0.975 GR
THZ531; 0.0003162 µM
  GR value: 0.9 GR
THZ531; 0.001 µM
  GR value: 0.875 GR
THZ531; 0.003162 µM
  GR value: 1.05 GR
THZ531; 0.01 µM
  GR value: 0.946 GR
THZ531; 0.03162 µM
  GR value: 0.731 GR
THZ531; 0.1 µM
  GR value: 0.0348 GR
THZ531; 0.3162 µM
  GR value: -0.33 GR
THZ531; 1 µM
  GR value: -0.343 GR
Flavopiridol; 0.0001 µM
  GR value: 1 GR
Flavopiridol; 0.0003162 µM
  GR value: 1.01 GR
Flavopiridol; 0.001 µM
  GR value: 0.869 GR
Flavopiridol; 0.003162 µM
  GR value: 0.766 GR
Flavopiridol; 0.01 µM
  GR value: 0.972 GR
Flavopiridol; 0.03162 µM
  GR value: 0.821 GR
Flavopiridol; 0.1 µM
  GR value: 0.788 GR
Flavopiridol; 0.3162 µM
  GR value: 0.25 GR
Flavopiridol; 1 µM
  GR value: -0.298 GR
[4]; 0.0003162 µM
  GR value: 0.995 GR
[4]; 0.001 µM
  GR value: 0.983 GR
[4]; 0.003162 µM
  GR value: 0.933 GR
[4]; 0.01 µM
  GR value: 0.791 GR
[4]; 0.03162 µM
  GR value: 0.498 GR
[4]; 0.1 µM
  GR value: 0.298 GR
[4]; 0.3162 µM
  GR value: 0.17 GR
[4]; 1 µM
  GR value: 0.178 GR
[4]; 3.162 µM
  GR value: 0.121 GR
[5]; 0.001 µM
  GR value: 0.878 GR
[5]; 0.003162 µM
  GR value: 0.833 GR
[5]; 0.01 µM
  GR value: 0.478 GR
[5]; 0.03162 µM
  GR value: 0.21 GR
[5]; 0.1 µM
  GR value: 0.136 GR
[5]; 0.3162 µM
  GR value: 0.113 GR
[5]; 1 µM
  GR value: 0.086 GR
[5]; 3.162 µM
  GR value: 0.0858 GR
[5]; 10 µM
  GR value: 0.0092 GR
YKL-5-124; 0.001 µM
  GR value: 0.597 GR
YKL-5-124; 0.003162 µM
  GR value: 0.543 GR
YKL-5-124; 0.01 µM
  GR value: 0.372 GR
YKL-5-124; 0.03162 µM
  GR value: 0.396 GR
YKL-5-124; 0.1 µM
  GR value: 0.338 GR
YKL-5-124; 0.3162 µM
  GR value: 0.279 GR
YKL-5-124; 1 µM
  GR value: 0.323 GR
YKL-5-124; 3.162 µM
  GR value: 0.24 GR
YKL-5-124; 10 µM
  GR value: -0.0052 GR

## MDAMB436
Cabozantinib
  GR50, 72 h: 6.5 µM
BSJ-03-123
  GR50, 72 h: 7.25 µM
[1]
  GR50, 72 h: 0.0143 µM
Vorinostat
  GR50, 72 h: 2.68 µM
Buparlisib/NVP-BKM120
  GR50, 72 h: 1.18 µM
Paclitaxel
  GR50, 72 h: 0.00371 µM
SHP099
  GR50, 72 h: > 10 µM
AZD5363
  GR50, 72 h: > 10 µM
[2]
  GR50, 72 h: 2.1 µM
[3]; 0.0001 µM
  GR value: 0.969 GR
[3]; 0.0003162 µM
  GR value: 1.01 GR
[3]; 0.001 µM
  GR value: 1.07 GR
[3]; 0.003162 µM
  GR value: 1.11 GR
[3]; 0.01 µM
  GR value: 0.868 GR
[3]; 0.03162 µM
  GR value: -0.101 GR
[3]; 0.1 µM
  GR value: -0.124 GR
[3]; 0.3162 µM
  GR value: -0.0986 GR
[3]; 1 µM
  GR value: -0.15 GR
LEE011/Ribociclib; 0.001 µM
  GR value: 0.982 GR
LEE011/Ribociclib; 0.003162 µM
  GR value: 1.05 GR
LEE011/Ribociclib; 0.01 µM
  GR value: 1.06 GR
LEE011/Ribociclib; 0.03162 µM
  GR value: 1.08 GR
LEE011/Ribociclib; 0.1 µM
  GR value: 0.913 GR
LEE011/Ribociclib; 0.3162 µM
  GR value: 1.03 GR
LEE011/Ribociclib; 1 µM
  GR value: 0.95 GR
LEE011/Ribociclib; 3.162 µM
  GR value: 0.982 GR
LEE011/Ribociclib; 10 µM
  GR value: 0.951 GR
THZ1; 0.0001 µM
  GR value: 0.928 GR
THZ1; 0.0003162 µM
  GR value: 1.07 GR
THZ1; 0.001 µM
  GR value: 1.03 GR
THZ1; 0.003162 µM
  GR value: 1.02 GR
THZ1; 0.01 µM
  GR value: 1.1 GR
THZ1; 0.03162 µM
  GR value: 1.02 GR
THZ1; 0.1 µM
  GR value: 0.478 GR
THZ1; 0.3162 µM
  GR value: 0.229 GR
THZ1; 1 µM
  GR value: -0.138 GR
THZ531; 0.0001 µM
  GR value: 1.1 GR
THZ531; 0.0003162 µM
  GR value: 1.02 GR
THZ531; 0.001 µM
  GR value: 0.944 GR
THZ531; 0.003162 µM
  GR value: 1.07 GR
THZ531; 0.01 µM
  GR value: 1.12 GR
THZ531; 0.03162 µM
  GR value: 1.01 GR
THZ531; 0.1 µM
  GR value: 0.676 GR
THZ531; 0.3162 µM
  GR value: 0.328 GR
THZ531; 1 µM
  GR value: 0.0201 GR
Flavopiridol; 0.0001 µM
  GR value: 0.988 GR
Flavopiridol; 0.0003162 µM
  GR value: 0.97 GR
Flavopiridol; 0.001 µM
  GR value: 0.97 GR
Flavopiridol; 0.003162 µM
  GR value: 0.889 GR
Flavopiridol; 0.01 µM
  GR value: 1.01 GR
Flavopiridol; 0.03162 µM
  GR value: 0.905 GR
Flavopiridol; 0.1 µM
  GR value: 0.701 GR
Flavopiridol; 0.3162 µM
  GR value: 0.125 GR
Flavopiridol; 1 µM
  GR value: -0.0603 GR
[4]; 0.0003162 µM
  GR value: 1.06 GR
[4]; 0.001 µM
  GR value: 1.04 GR
[4]; 0.003162 µM
  GR value: 1.03 GR
[4]; 0.01 µM
  GR value: 1.04 GR
[4]; 0.03162 µM
  GR value: 0.977 GR
[4]; 0.1 µM
  GR value: 1.03 GR
[4]; 0.3162 µM
  GR value: 1.01 GR
[4]; 1 µM
  GR value: 1.09 GR
[4]; 3.162 µM
  GR value: 1.02 GR
[5]; 0.001 µM
  GR value: 1.04 GR
[5]; 0.003162 µM
  GR value: 1 GR
[5]; 0.01 µM
  GR value: 1.04 GR
[5]; 0.03162 µM
  GR value: 1.03 GR
[5]; 0.1 µM
  GR value: 1.02 GR
[5]; 0.3162 µM
  GR value: 1 GR
[5]; 1 µM
  GR value: 0.719 GR
[5]; 3.162 µM
  GR value: 0.337 GR
[5]; 10 µM
  GR value: -0.322 GR
YKL-5-124; 0.001 µM
  GR value: 0.84 GR
YKL-5-124; 0.003162 µM
  GR value: 0.563 GR
YKL-5-124; 0.01 µM
  GR value: 0.533 GR
YKL-5-124; 0.03162 µM
  GR value: 0.432 GR
YKL-5-124; 0.1 µM
  GR value: 0.409 GR
YKL-5-124; 0.3162 µM
  GR value: 0.3 GR
YKL-5-124; 1 µM
  GR value: 0.405 GR
YKL-5-124; 3.162 µM
  GR value: 0.291 GR
YKL-5-124; 10 µM
  GR value: -0.0192 GR
